Reference: publication PMC10726355, “Small Molecule Ligands of the BET-like Bromodomain, SmBRD3, Affect Schistosoma mansoni Survival, Oviposition, and Development” (Journal of Medicinal Chemistry, 2023)
Converted amounts (≈) assume the structure as drawn. “Also recorded” adds a separate entry of the source. Read-outs that look alike come from different tables or passages of the source.

Assays:
[1] = tested on: S. mansoni miracidia; assay: Ex vivo miracidia to sporocyst transformation screening; design: species or system Schistosoma mansoni; details: 48 h
Method: S. mansoni miracidia were obtained by hatching of schistosome eggs as previously described.[73] The resulting miracidial suspension was collected, washed with Chernin’s balanced salt solution (CBSS),[73] and enumerated prior to being used for ex vivo miracidia to sporocyst screens as previously reported.[66],[73] Each compound was tested at 0.5, 2.0, 5.0, 10, and 25 μM final concentrations (in 1% DMSO). Each treatment was set up in duplicate (15–25 miracidia/well). Each titration was performed in three independent experiments (two technical replicates per data point). Parasites cultured in CBSS (containing 1% DMSO) were included as negative controls. After 48 h incubation at 26 °C in the dark, dead, fully transformed and partially transformed miracidia were enumerated as previously described.[74],[75]

[2] = CAD solubility assay; type: physicochemical; details: phosphate buffered saline, pH 7.4, phosphate buffered saline at pH 7.4; read-out: Aqueous Solubility by CAD
Method: A CAD solubility assay was carried out by Physchem Team, Discovery Analytical, NCE Molecular Discovery at GSK. 5 μL of 10 mM DMSO stock solution was diluted to 100 μL with pH 7.4 phosphate buffered saline, equilibrated for 1 h at room temperature, and filtered through Millipore MultiscreenHTS-PCF filter plates (MSSL BPC). The filtrate was quantified using a suitably calibrated charged aerosol detector.[45]

[3] = molecular target: T1, SmBRD3(2) (Schistosoma mansoni, UniProt A0A5K4ESD7); assay: biochemical; type: binding
T1 sequence (A0A5K4ESD7 entry or part of it): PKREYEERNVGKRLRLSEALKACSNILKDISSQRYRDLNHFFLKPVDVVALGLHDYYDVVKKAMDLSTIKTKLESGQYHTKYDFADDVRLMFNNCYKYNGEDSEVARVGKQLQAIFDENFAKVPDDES

[4] = tested on: S. mansoni schistosomula; assay: Ex vivo schistosomula screening (Roboworm high content imaging); design: species or system Schistosoma mansoni; details: 72 h; for EC50: Schistosoma mansoni, ethyl esters (R=Et), 95% CI in brackets
Method: A high-throughput imaging platform that quantifies both phenotype and motility ex vivo, was used to screen compounds against schistosomula; their effects were assessed as previously described.[20] Briefly, the schistosomula stage of S. mansoni was obtained by mechanical transformation of cercariae, dispensed into 384-well tissue culture plates, and dosed with 20 μM (Figure 7) or 10 μM (Figure S48) of each compound. Following 72 h coincubation of the schistosomula and compound, the plate was subjected to high content imaging to quantify the effects of each compound.
S. mansoni schistosomula were obtained by mechanical transformation from cercariae as previously described,[64] distributed in 384-well tissue culture plates (PerkinElmer, catalogue number 6007460) at 120 parasites/well and dosed with the selected compounds as previously reported.[65]−[68] For this study, each compound (as 10 mM DMSO stock solution) was initially tested at two concentration points (20 and 10 μM final concentration, in duplicates) in at least four independent screens (Z′ scores above 0.35).[69] Each screen contained both positive (10 μM auranofin (AUR) in 0.625% DMSO) and negative (0.625% DMSO) controls. […] Following 72 h schistosomula/compound coincubation, the plate was analyzed by the Roboworm platform.[70] EC50 values were calculated from the titrated concentrations by nonlinear regression, after log transformation of concentrations and data normalization using GraphPad Prism 7.02.

[5] = tested on: adult male S. mansoni; assay: Determination of compound parasite permeability (LCMS of worm lysate); type: in vitro ADME, Schistosoma mansoni
[6] = chromLogD assay; type: physicochemical; details: reversed phase HPLC column (Gemini NX C18), pH 7.4
Method: Lipophilicity: a chromLogD assay was carried out by the Physchem Team, Discovery Analytical, NCE Molecular Discovery at GSK. The chromatographic hydrophobicity index (CHI)[46],[47] values were measured using reversed phase HPLC column (50 × 2 mm […] Gemini NX C18, Phenomenex, UK) with fast acetonitrile gradient at starting mobile phase of pHs 2, 7.4, or 10.5. CHI values were derived directly from the gradient retention times using calibration parameters for standard compounds. The CHI value approximates to the volume % organic concentration when the compound elutes. CHI was linearly transformed into a chromLogD[48] value by least-squares fitting of experimental CHI values to calculated cLogP values for over 20000 research compounds.

[7] = Compound conversion in media with or without worms (LCMS); type: in vitro ADME; details: media in the presence or absence of worms; 20 μM; 24 h
Method: As the low solubility of the ethyl ester derivatives prevented us from determining their affinity for SmBRD3(2) using ITC, it is possible that these compounds are themselves inhibitors of SmBRD3(2). Alternatively, the ethyl esters could function as pro-drugs that release the corresponding acid in the parasite. To investigate compound permeability, adult worms were treated with 20 μM of the acid 15 or the ethyl ester 22 for 24 h, and then the media exchanged three times. The worms were then lysed and the levels of the acid 15 or the ethyl ester 22 were determined using LCMS (Figure S50).
Figure S-52. A. Estimation of the concentration of 15 and 22 in media after incubation with 22 in the presence and absence of S. mansoni. The concentration estimations were calculated as an average (presence of worm n=3, no worm n=2) from the analysis media in the presence (5 worms per well) or absence of worms, with error bars representing the s.e.m. B. Estimation of the concentration of 1 and 2 in media after incubation with 2 in the presence and absence of S. mansoni. The concentration estimations were calculated as an average (presence of worm n=2, no worm n=1) from the analysis of media in the presence (5 worms per well) or absence of worms with error bars representing the […]

[8] = tested on: S. mansoni adult worms; assay: Ex vivo adult worm screening (motility, IVLEs, pairing); design: species or system Schistosoma mansoni; details: 72 h
Method: S. mansoni adult worms were recovered by hepatic portal vein perfusion from TO mice (Mus musculus HsdOLa:TO - Tuck Ordinary; Envigo, UK) that were percutaneously infected 7 weeks earlier with 180 cercariae.[65],[71] Following perfusion, schistosomes were washed and processed as previously described.[65],[66] Subsequently, schistosome pairs were seeded into 48 well tissue culture plates (1 worm pair/well, in duplicate) and dosed with the compounds (20 μM in 0.2% DMSO). DMSO (0.2%) and praziquantel (10 μM in 0.1% DMSO) were also included as negative and positive controls, respectively. Parasite motility was assessed by a digital image processing-based system (WormassayGP2),[66] modified after Wormassay.[72]In vitro laid eggs (IVLEs) were enumerated and the presence or absence of paired worms was noted.

[9] = molecular target: T1, SmBRD3(2); assay: Differential scanning fluorimetry (thermal shift), SmBRD3(2); type: binding; details: DSF; 50 μM compound
Method: Reported ΔTm values are the mean of two replicates.
Differential scanning fluorimetry assay
The differential scanning fluorimetry (DSF) or thermal stability assays were carried out following the protocol described by Niesen et al. and data were analysed as described previously.8 Thermal melting experiments were carried out using the Mx3005p real-time PCR machine (Agilent) and employing a protein concentration of 5 μM for the schistosomal bromodomains [SmBRD3(2), […]
the DMSO content was 0.5% (v/v). Buffer conditions were 50 mM HEPES buffer, pH 7.5, 500 mM NaCl and a 1:500 dilution of SYPRO® Orange (Invitrogen, CA) was used. The 96-well PCR plates were sealed and centrifuged for 2 min at 1000 rpm at 25 °C before measurement. The temperature was raised with a step of 1 °C per 30 s from 25 °C to 85 °C, and fluorescence readings were taken at each interval. […]
Isothermal titration calorimetry experiments were performed on a MicroCal PEAQ-ITC Automated or Manual (Malvern) and analysed with the MicroCal PEAQ-ITC Analysis software (Malvern 1.1.0.1262) using a single binding site model. […]
Male adult schistosomes were seeded into 24-well tissue culture plates (5 worms/well), dosed with compounds (20 µM in 0.2% DMSO v/v) and incubated for 24 h at 37 °C in 5% CO2. […] When ready for processing, worms were removed from the −80 °C and subject to 3 rounds of repeated snap freeze:thawing. […]

[10] = tested on: SmBRD3(1,2); assay: Differential scanning fluorimetry (thermal shift), SmBRD3(1,2); details: DSF; 50 μM compound
Method: difference between the transition midpoints of sample and reference wells containing protein without inhibitor in the same plate. Reported ΔTm values are the mean of two replicates.
Isothermal titration calorimetry experiments were performed on a MicroCal PEAQ-ITC Automated or Manual (Malvern) and analysed with the MicroCal PEAQ-ITC Analysis software (Malvern 1.1.0.1262) using a single binding site model. For each experiment, the first data point was removed from the analysis. The proteins were dialysed at 4 °C overnight in a Slide-A-LyzerR MINI Dialysis Device (2000 MWCO; Thermo Scientific Life Technologies) into 50 mM HEPES, 150 mM NaCl containing 0.2% DMSO; pH 7.4. Proteins were centrifuged to remove aggregates (3 min, 3000 rpm, 25 °C).
Compounds were dissolved as a DMSO stock solution and diluted to the required concentration using dialysis buffer (DMSO free) and to a final DMSO concentration of 0.2% (unless otherwise specified). The cell was stirred at 750 rpm, reference power set to 5 μcal/s and temperature held at 25 °C. After an initial delay of 60 s, 19 x 2 μL injections (first injection 0.4 μL) were performed with a spacing of 180 s. […]

[11] = molecular target: SmBRD3(1,2) (Schistosoma mansoni, UniProt A0A5K4ESD7); assay: biochemical; type: binding; details: for N number, binding to SmBRD3(1,2): ITC stoichiometry, n=1 ± error of curve fit; for Kd: ITC
Chain of SmBRD3(1,2) (Schistosoma mansoni, UniProt A0A5K4ESD7) (A0A5K4ESD7 entry or part of it): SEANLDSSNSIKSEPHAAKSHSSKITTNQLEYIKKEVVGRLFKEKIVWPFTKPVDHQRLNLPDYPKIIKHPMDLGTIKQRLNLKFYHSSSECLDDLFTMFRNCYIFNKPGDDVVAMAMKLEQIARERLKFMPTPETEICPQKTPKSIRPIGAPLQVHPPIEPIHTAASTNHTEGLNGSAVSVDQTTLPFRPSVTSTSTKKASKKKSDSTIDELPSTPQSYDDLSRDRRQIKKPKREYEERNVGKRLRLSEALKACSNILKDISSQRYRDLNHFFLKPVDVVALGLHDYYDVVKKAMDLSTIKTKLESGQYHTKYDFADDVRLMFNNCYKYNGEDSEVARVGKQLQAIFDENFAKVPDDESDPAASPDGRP

[12] = 20 μM (Figure 7) or 10 μM (Figure S48)
[13] = SmBRD3(1,2) Kd, n = 1 ± error of the curve fit

CCOC(=O)c1ccc(-c2ccc3c(c2)[C@H](Nc2ccc4ncccc4c2)C[C@H](C)N3C(C)=O)cc1 [Compound 22, Ethyl 4-{(2S,4R)-1-Acetyl-2-methyl-4-[(quinolin-6-yl)amino]-1,2,3,4-tetrahydroquinolin-6-yl}benzoate]
Effect on miracidia to sporocyst transformation ([1]; 0.5-25 μM in 1% DMSO, 26 °C): concentration-dependent inhibition; also recorded: substantial and concentration-dependent effect
Concentration at which the majority of miracidia were prevented from transforming into sporocysts [1]: 2.00 µM
solubility at 1 h [2]: 13 µM (≈ 6.23 µg/mL)
SmBRD3(2) Kd [3]: No binding
SmBRD3(2) Kd, Repeat 1 [3]: No binding
Antischistosomula activity at 10 μM ([4]; 10 μM): active
Effect on schistosomula motility [4, 12]: greatest effects; also recorded: strong effects
Effect on schistosomula phenotype [4, 12]: greatest effects; also recorded: strong effects
EC50 ([4]; read-out: Schistosomla Movement EC50): 3300 nM
EC50 ([4]; read-out: Schistosomla Phenotype EC50): 1110 nM
Worm permeability ([5]; adult worms, 20 μM, 24 h): high worm permeability
Conversion of ester to acid 15 in the worm ([5]; worms treated with 20 μM for 24 h, LCMS): can be converted from the ester to the acid in the worm
Quantity of compound found in lysed adult worms ([5]; worms treated with 20 μM of the same compound for 24 h, LCMS): High quantities
chromatographic logD [6]: 5.95
Conversion in media (ester hydrolysis / deacetylation) [7]: some ester hydrolysis
Effect on adult worm movement ([8]; 20 μM in 0.2% DMSO): substantial effects; also recorded: reduced
Effect on egg count (in vitro laid eggs) ([8]; 20 μM): reduced
Effect on worm pairing ([8]; 20 μM): reduced

CC(=O)N1c2ccc(-c3ccc(C(=O)O)cc3)cc2[C@H](Nc2ccc(Cl)cc2)C[C@@H]1C [I-BET726 (8), I-BET726, reference compound]
Thermal stabilisation (ΔTm) of SmBRD3(2) [9]: stabilize both SmBRD3(1,2) and SmBRD3(2)
Thermal stabilisation (ΔTm) of SmBRD3(1,2) [10]: stabilize both SmBRD3(1,2) and SmBRD3(2)
N number, binding to SmBRD3(2), Repeat 1 ([3]; ITC stoichiometry, Repeat 1): 1.12 ± 4.2e-2
N number, binding to SmBRD3(2), Mean ([3]; ITC stoichiometry, mean of repeats): 1.12 ± 4.2e-2
Kd ([3]; SmBRD3(2) Kd, ITC, single value ± error of the curve fit or mean of 2-3 repeats ± s.e.m.): 1850 ± 361 nM
Kd ([3]; SmBRD3(2) Kd, Repeat 1, ITC, single run ± error of curve fit, Repeat 1): 1850 ± 361 nM
Kd ([3]; SmBRD3(2) pKd, ITC): 2000 nM
N number, binding to SmBRD3(1,2) [11]: 1.66 ± 6.7e-2
Kd [11, 13]: 1520 ± 520 nM
Kd ([11]; SmBRD3(1,2) pKd): 1580 nM

CC(=O)Oc1cc(-c2c(C)noc2C)cc(C(O)c2ccccc2)c1 (stereo not shown) [OXFBD03 (2), OXFBD03, reference compound]
SmBRD3(2) Kd, Repeat 1 ([3]; ITC, single run ± error of curve fit, Repeat 1): No binding
SmBRD3(2) Kd ([3]; ITC, single value ± error of the curve fit or mean of 2-3 repeats ± s.e.m.): No detectable binding
N number, binding to SmBRD3(1,2) [11]: 1.17 ± 1.7e-2
Kd [11, 13]: 675 ± 97.6 nM
Kd ([11]; SmBRD3(1,2) pKd): 631 nM
Conversion in media (ester hydrolysis / deacetylation) [7]: rapidly deacetylated
